Measurements: publication PMC6934184, “Selective DNA-PKcs inhibition extends the therapeutic index of localized radiotherapy and chemotherapy” (The Journal of Clinical Investigation, 2019)

Target: T1, KIT T670E (Homo sapiens, UniProt P10721, T670E)
T1 construct: purchased Thermo Fisher Scientific (Life Technologies) SelectScreen
Test: SelectScreen LanthaScreen
Type: binding
Details: read-out: % displacement
In short: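 NU5455 was profiled across the SelectScreen Broad panel of kinase activity and binding assays. Z'LYTE reactions such as CSF1R ran at apparent Km ATP, while the Adapta CAMK1 assay used ATP listed as 10. Values are given as percent.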

T1 sequence (P10721 26-976 T670E): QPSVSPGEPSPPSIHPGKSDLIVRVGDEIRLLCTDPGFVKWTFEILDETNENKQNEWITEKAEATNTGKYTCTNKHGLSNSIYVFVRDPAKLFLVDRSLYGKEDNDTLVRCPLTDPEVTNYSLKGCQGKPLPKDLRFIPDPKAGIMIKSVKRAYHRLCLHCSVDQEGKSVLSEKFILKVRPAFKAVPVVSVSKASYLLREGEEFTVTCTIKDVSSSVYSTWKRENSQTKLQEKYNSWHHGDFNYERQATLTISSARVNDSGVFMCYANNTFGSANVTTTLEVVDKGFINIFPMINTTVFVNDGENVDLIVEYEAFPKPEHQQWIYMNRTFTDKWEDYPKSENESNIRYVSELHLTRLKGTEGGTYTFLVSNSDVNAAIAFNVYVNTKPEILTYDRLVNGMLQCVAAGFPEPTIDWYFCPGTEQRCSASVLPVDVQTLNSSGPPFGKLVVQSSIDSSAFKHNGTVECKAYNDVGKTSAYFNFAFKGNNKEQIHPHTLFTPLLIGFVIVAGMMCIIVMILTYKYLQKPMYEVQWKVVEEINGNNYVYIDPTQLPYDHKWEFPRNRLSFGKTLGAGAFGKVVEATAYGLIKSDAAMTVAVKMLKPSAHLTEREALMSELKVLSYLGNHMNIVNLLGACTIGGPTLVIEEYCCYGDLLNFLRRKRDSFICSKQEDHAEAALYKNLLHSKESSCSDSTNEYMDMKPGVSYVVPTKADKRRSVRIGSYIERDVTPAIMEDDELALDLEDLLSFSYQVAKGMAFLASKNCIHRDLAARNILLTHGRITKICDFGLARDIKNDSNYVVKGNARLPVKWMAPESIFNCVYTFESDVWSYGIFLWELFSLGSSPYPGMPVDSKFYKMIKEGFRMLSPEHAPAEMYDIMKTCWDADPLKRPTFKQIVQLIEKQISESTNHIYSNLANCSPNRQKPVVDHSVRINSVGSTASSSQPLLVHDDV

CN(C(=O)CN1CCOCC1)c1ccc2sc3c(-c4cccc5c(=O)cc(N6CC7CCC(C6)O7)oc45)cccc3c2c1 [NU5455]
inhibition at 1 µM: -2.8%
